Laboratory results reported in patent US20100061994A1, “MEDICAL USES OF 39-DESMETHOXYRAPAMYCIN AND ANALOGUES THEREOF” (priority 2005, published 2010).

How the values were obtained:
FKBP12 = FKBP12 (Homo sapiens, UniProt P62942); test: In vitro FKBP12 binding assay (GdnHCl unfolding); details: relative to literature Kd of rapamycin 0.2 nM
Excerpt: FKBP12 reversibly unfolds in the chemical denaturant guandinium hydrochloride (GdnHCl) and the unfolding can be monitored by the change in the intrinsic fluorescence of the protein (Main et al, 1998). Ligands which specifically bind and stabilise the native state of FKBP12 shift the denaturation curve such that the protein unfolds at higher concentrations of chemical denaturant (Main et al, 1999). From the difference in stability, the ligand-binding constant can be determined using equation 1.
where ΔGapp is the apparent difference in free energy of unfolding between free and ligand-bound forms, ΔGD−N^H^2^O is the free energy of unfolding in water of free protein, [L] the concentration of ligand and kd the dissociation constant for the protein-ligand complex (Meiering et al, 1992). The free energy of unfolding can be related to the midpoint of the unfolding transition using the following equation: […]
where mD−N is a constant for a given protein and given denaturant and which is proportional to the change in degree of exposure of residues on unfolding (Tanford 1968 and Tanford 1970), and [D]50% is the concentration of denaturant corresponding to the midpoint of unfolding.
where <mD−N> is the average m-value of the unfolding transition and Δ[D]50% the difference in midpoints for the rapamycin-FKBP12 unfolding transition and unknown-ligand-FKBP12 complex unfolding transition. Under conditions where [L]>Kd, then, ΔΔGD−N, can be related to the relative Kds of the two compounds through equation 4: […]

U87-MG = test: Glioma orthotopically xenografted in nude mice, MRI tumour volume; format: in vivo; details: 3 mg/kg/inj IV, (Q1D×3)×5W, MRI at D23, mean of 4 values
Description: The test compound was dissolved in ethanol (0.027 mL/mg compound) and vortexed for 20 min until the solution was clear. Ethanolic solutions were aliquoted as appropriate and stored at −20° C.
The test substance and control vehicle were administered intravenously (IV, bolus) by injection into the caudal vein of the test mice. An injection volume of 10 mL/kg was used, based on the most recent body weight of mice.
The cell line used for the study was U87-MG, a glioblastoma cell line initiated by J. Ponten from a […] glioblastoma from a person (Poten et al., 1968).
Mice were stereotaxically injected with U87-MG cells at D, 24 to 48 hours after a whole body irradiation with a γ-source (2.5 Gy, Co^60, INRA BRETENIERE, Dijon). For the stereotaxic injection of tumour cells, mice were anesthetised by an intraperitoneal injection of Ketamine 100 mg/kg (Ketamine500®, Ref 043KET204, Centravet, France) and Xylazine 5 mg/kg (Rompun®, Ref 002ROM001, Centravet, France) in 0.9% NaCl solution at 10 mL/kg/inj. […]
After tripilot acquisitions, a turboRare T2 weighted sequence was performed. […] The tumour volume was determined by manually drawing a region of interest (ROI) around the tumour in each slice and by summation of all the surfaces.
Additionally the MRI analysis was used to calculate the average calculated tumour volume per treatment group, the results are summarised in Table 13 below. […]

Chain of FKBP12 (P62942 whole entry, species assumed): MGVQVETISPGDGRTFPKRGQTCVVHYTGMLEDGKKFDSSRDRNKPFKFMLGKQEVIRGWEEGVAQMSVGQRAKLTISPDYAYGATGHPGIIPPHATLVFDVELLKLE

## COC1CC2CCC(C)C(O)(O2)C(=O)C(=O)N2CCCCC2C(=O)OC(C(C)CC2CCC(O)CC2)CC(=O)C(C)C=C(C)C(O)C(OC)C(=O)C(C)CC(C)C=CC=CC=C1C (centres unmarked) [39-desmethoxyrapamycin]
FKBP12
  Kd: 0.7 nM
U87-MG
  average calculated tumour volume, Day 23 (mm^3): 1.25 mm^3
